Earlier results, collected in patent publication US20190091195A1, “USE OF DIANHYDROGALACTITOL AND DERIVATIVES THEREOF IN THE TREATMENT OF GLIOBLASTOMA, LUNG CANCER, AND OVARIAN CANCER” (Del Mar Pharmaceuticals, priority 2015, published 2019).

What was measured:
GSK-3β = GSK-3β (Homo sapiens, UniProt P49841); settings: cited from earlier work
[1] = cited from earlier work

Sequence of GSK-3β (P49841 whole entry, species assumed): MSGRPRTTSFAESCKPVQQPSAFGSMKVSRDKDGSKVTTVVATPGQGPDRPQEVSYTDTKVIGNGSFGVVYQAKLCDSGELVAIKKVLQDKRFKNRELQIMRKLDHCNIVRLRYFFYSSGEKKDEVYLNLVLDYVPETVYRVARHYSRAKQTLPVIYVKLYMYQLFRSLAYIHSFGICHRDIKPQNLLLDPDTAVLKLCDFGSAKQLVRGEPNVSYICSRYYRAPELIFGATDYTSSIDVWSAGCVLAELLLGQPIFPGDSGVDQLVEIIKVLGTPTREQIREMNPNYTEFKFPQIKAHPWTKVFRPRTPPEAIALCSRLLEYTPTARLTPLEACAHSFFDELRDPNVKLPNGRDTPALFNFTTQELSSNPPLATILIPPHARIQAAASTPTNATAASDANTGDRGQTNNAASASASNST

| Structure (SMILES) | concentration for inhibition of GSK-3β (GSK-3β) [nM] | absorption by the oral route [1] |
| --- | --- | --- |
| CN1C(=O)/C(=C2/C(=O)Nc3ccccc32)c2ccccc21 [Meisoindigo] | 5 to 50 | – |
| O[C@H]([C@H](O)[C@@H](O)CBr)[C@H](O)CBr [dibromodulcitol] | – | rapid and fairly complete |
